Results from paper PMC6627331, “Identification of Small Molecule Inhibitors of Staphylococcus aureus RnpA” (Antibiotics, 2019).
pIC50: −log10 of the molar value. In brackets after ≈: the same amount, converted by molar mass.

Molecular target: T1, S. aureus RNase P (RnpA + rnpB) (Staphylococcus aureus, UniProt P0A0H5)
T1 construct: hexahistidine (His6) (N); made in house; host or cells: E. coli BL21 (DE3), plasmid pEXP5-nt
T1 sequence (P0A0H5 1-117): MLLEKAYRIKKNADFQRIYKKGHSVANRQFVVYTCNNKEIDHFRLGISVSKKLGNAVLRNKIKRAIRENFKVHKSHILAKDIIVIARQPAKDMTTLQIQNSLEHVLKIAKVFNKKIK
Assay: RnpA-dependent RNase P in vitro ptRNA^Tyr processing assay
Type: biochemical
Conditions: SAR figures; in vitro ptRNA^Tyr processing; read-out: pIC50 = processing IC50 (converted)
Protocol: S. aureus RNase P activity assays were performed according to conditions described previously. Briefly, ptRNA^Tyr and rnpB RNA species were first denatured by heating to 95 °C for 5 min then slow cooled to room temperature. RNase P was reconstituted by mixing an equal molar ratio of rnpB and RnpA for 15 min at 37 °C. Precursor tRNA processing inhibition reactions were performed by mixing 1.25 pmol of reconstituted RNase P (RnpA + rnpB) with an equal volume of 2× low salt buffer (50 mM Tris-HCl pH 8.0, 5 mM MgCl2) in the presence of DMSO (negative control) or the indicated compound (≤500 µM) and incubated for 5 min at 37 °C. 5 pmol ptRNA^Tyr was added and the mixture was incubated at 37 °C 15 min. Reactions were stopped by adding 2× RNA loading dye and heating at 65 °C for 10 min. Each sample was electrophoresed in a 7 M urea/8% polyacrylamide gel then stained with ethidium bromide. The Biorad EZ Gel Doc imaging system was used to visualize the RNA and relative abundance of the mature tRNA^Tyr band (% processing) in the negative control or in samples containing the indicated compounds and analyzed using Biorad Image Lab densitometry software. The inhibitory activity of the indicated compounds were calculated as a % inhibition using the following equation: […].
To assess IC50, % RNase P processing inhibition was plotted against compound concentration and a linear best fit equation was generated to calculate the IC50.

IC50 [µM] | Compound
6 | O=C(Nc1cccc(Cl)c1)c1c(NC(=O)C(F)(F)F)sc2c1CCCC2 [JR3b]
10 | O=C(Nc1ccccc1)c1c(NC(=O)C(F)(F)F)sc2c1CCCCC2 [JR4]
80 | Cc1ccc(NC(=O)c2c(NC(=O)C(F)(F)F)sc3c2CCCCC3)cc1 [JR5]
22 | COc1ccc(NC(=O)c2c(NC(=O)C(F)(F)F)sc3c2CCCCC3)cc1 [JR6]

Same assay, conditions: Table S1, mupirocin synergy screening initial hits; read-out: processing IC50

Compound | pIC50
O=S(=O)(Nc1cccc2cccnc12)c1ccccc1 [compound 5175130] | < 3.30
c1ccc(Nc2nc(-c3ccccn3)cs2)nc1 [compound 5625000] | < 3.30
Cc1cccc(/C=C/c2ccc3cccc(O)c3n2)c1O [compound 6634438] | > 4.20

Same assay, conditions: in vitro ptRNA^Tyr processing; read-out: Processing IC50

Compound | pIC50
O=C(Nc1cc(Cl)cc(Cl)c1)N1CCCCCC1 [JC5] | 3.65
CC1CN(C(=O)Nc2cc(Cl)cc(Cl)c2)CC(C)O1 (stereo not shown) [JC9] | < 3.30
O=C(Nc1ccc(Cl)cc1)c1c(NC(=O)C(F)(F)F)sc2c1CCCCC2 [JR1] | 4.92

Results, then the compound that gave them:

pIC50 | Compound
3.94 | CC(=O)Nc1sc2c(c1C(=O)Nc1ccc(Cl)cc1)CCCCC2 [JR1b]
4.60 | Nc1sc2c(c1C(=O)Nc1ccc(Cl)cc1)CCCCC2 [JR1c]
4.00 | O=C(Nc1ccccc1Cl)c1c(NC(=O)C(F)(F)F)sc2c1CCCC2 [JR2b]

Molecular target: T2, S. aureus RnpA (Staphylococcus aureus, UniProt P0A0H5)
T2 construct: hexahistidine (His6) (N); made in house; host or cells: E. coli BL21 (DE3), plasmid pEXP5-nt
T2 sequence (P0A0H5 1-117): T1 sequence (P0A0H5 1-117)
Assay: RnpA-mediated in vitro spa mRNA degradation assay
Type: biochemical
Conditions: SAR figures, read-out: dIC50 = degradation IC50
Protocol: RnpA-mediated RNA degradation assays were performed as previously described. Briefly, 1 pmol of spa mRNA was incubated with 5 pmol RnpA at 37 °C for 30 min in reaction buffer (50 mM Tris-HCl pH 8.0, 2 mM NaCl, 2 mM MgCl2) in the absence or presence of the indicated compound (≤500 µM). The inhibitory effects of the test compounds were calculated using Biorad ImageLab densitometry software to measure the signal intensity of the spa band in the negative control (spa alone), positive control (RnpA + spa + DMSO), and experimental samples (RnpA + spa + test compound) separated on a 1.2% formaldehyde-agarose gel. Background signal from the positive control sample sometimes resulted due to incomplete degradation of transcripts. Thus, the signal intensity of the positive control was taken into account when calculating the percent inhibition. The raw signals from the positive (+RnpA) and negative (-RnpA) controls were converted into percentage, by normalizing the positive control (+RnpA) signal to 0% RnpA inhibition and the negative control (-RnpA) to 100% RnpA inhibition. Similarly, the raw signals from the test compounds were reported as percent RnpA inhibition using the following equation: [(experimental−positive control)/(negative control−positive control)] × 100. […] To assess IC50, % RnpA degradation inhibition was plotted against compound concentration; a linear best fit equation was generated and utilized to calculate the IC50.

pIC50 | Compound
4.21 | O=C(Nc1ccccc1Cl)c1c(NC(=O)C(F)(F)F)sc2c1CCCC2 [JR2b]
4.46 | O=C(Nc1cccc(Cl)c1)c1c(NC(=O)C(F)(F)F)sc2c1CCCC2 [JR3b]
4.20 | O=C(Nc1ccccc1)c1c(NC(=O)C(F)(F)F)sc2c1CCCCC2 [JR4]
3.94 | Cc1ccc(NC(=O)c2c(NC(=O)C(F)(F)F)sc3c2CCCCC3)cc1 [JR5]

Same assay, conditions: read-out: Degradation IC50

Compound | pIC50
O=C(Nc1cc(Cl)cc(Cl)c1)N1CCCCCC1 [JC5] | 3.70
CC1CN(C(=O)Nc2cc(Cl)cc(Cl)c2)CC(C)O1 (stereo not shown) [JC9] | < 3.30
O=C(Nc1ccc(Cl)cc1)c1c(NC(=O)C(F)(F)F)sc2c1CCCCC2 [JR1] | 4.20

Further lines, results first:

pIC50 | Compound
< 3.60 | CC(=O)Nc1sc2c(c1C(=O)Nc1ccc(Cl)cc1)CCCCC2 [JR1b]
3.76 | Nc1sc2c(c1C(=O)Nc1ccc(Cl)cc1)CCCCC2 [JR1c]
< 3.60 | COc1ccc(NC(=O)c2c(NC(=O)C(F)(F)F)sc3c2CCCCC3)cc1 [JR6]

Test system: S. aureus UAMS-1
Assay: Minimum inhibitory concentration (MIC) testing
Type: cell-based, Staphylococcus aureus
Conditions: S. aureus UAMS-1, 16 h in MHB; listed as ST016037
Protocol: Minimum inhibitory concentration (MIC) testing was performed using to Clinical & Laboratory Standards Institute (CLSI) guidelines. Accordingly, individual wells of a 96-well microtiter plate were inoculated with 10^4 colony forming units (CFU) of S. aureus UAMS-1 containing two-fold increasing concentrations (0 to 256 μg·mL^−1) of the indicated antibiotic or putative RnpA inhibitor compound, and incubated at 37 °C for 16 h in MHB. The MIC was defined as the lowest concentration of compound in which there was no visible bacterial growth in the well.

Compound | MIC [µg/mL]
O=C(Nc1ccc(Cl)cc1)c1c(NC(=O)C(F)(F)F)sc2c1CCCCC2 [JR1] | 0.5 (≈ 1.2 µM)

Same assay, conditions: Staphylococcus aureus, UAMS1, 16 h, S. aureus UAMS-1, 16 h in MHB; read-out: MIC

Compound | MIC [µg/mL]
O=C(Nc1cc(Cl)cc(Cl)c1)N1CCCCCC1 [JC5] | 128 (≈ 446 µM)
O=C(Nc1ccc(Cl)cc1)c1c(NC(=O)C(F)(F)F)sc2c1CCCCC2 [JR1] | 0.25 to 1 (≈ 0.6 to 2.4 µM)
C/C(=C\C(=O)OCCCCCCCCC(=O)O)C[C@@H]1OC[C@H](C[C@@H]2O[C@H]2[C@@H](C)[C@H](C)O)[C@@H](O)[C@H]1O [mupirocin, reference compound] | 0.125 (≈ 0.25 µM)

More lines, now with the values ahead:

MIC [µg/mL] | Compound
> 256 | CC(=O)Nc1sc2c(c1C(=O)Nc1ccc(Cl)cc1)CCCCC2 [JR1b]
64 (≈ 199 µM) | Nc1sc2c(c1C(=O)Nc1ccc(Cl)cc1)CCCCC2 [JR1c]
> 256 | O=C(Nc1ccccc1Cl)c1c(NC(=O)C(F)(F)F)sc2c1CCCC2 [JR2b]
0.25 to 1 (≈ 0.631 to 2.52 µM) | Cc1ccc(NC(=O)c2c(NC(=O)C(F)(F)F)sc3c2CCCCC3)cc1 [JR5]
0.25 to 1 (≈ 0.606 to 2.42 µM) | COc1ccc(NC(=O)c2c(NC(=O)C(F)(F)F)sc3c2CCCCC3)cc1 [JR6]

Same assay, conditions: Staphylococcus aureus, UAMS1, 16 h, Table S1, mupirocin synergy screening initial hits; read-out: MIC

Compound | MIC [µg/mL]
O=C(Nc1ccc(Cl)cc1)c1c(NC(=O)C(F)(F)F)sc2c1CCCCC2 [JR1] | 0.5

Same assay, conditions: Staphylococcus aureus, UAMS1, SAR figures; S. aureus UAMS-1; read-out: MIC

Compound | MIC [µg/mL]
O=C(Nc1cc(Cl)cc(Cl)c1)N1CCCCCC1 [JC5] | 128 (≈ 446 µM)
CC1CN(C(=O)Nc2cc(Cl)cc(Cl)c2)CC(C)O1 (stereo not shown) [JC9] | 32 (≈ 106 µM)
O=C(Nc1ccc(Cl)cc1)c1c(NC(=O)C(F)(F)F)sc2c1CCCCC2 [JR1] | 0.5 (≈ 1.2 µM)

Continued, values first:

MIC [µg/mL] | Compound
> 256 | CC(=O)Nc1sc2c(c1C(=O)Nc1ccc(Cl)cc1)CCCCC2 [JR1b]
64 (≈ 199 µM) | Nc1sc2c(c1C(=O)Nc1ccc(Cl)cc1)CCCCC2 [JR1c]
> 256 | O=C(Nc1ccccc1Cl)c1c(NC(=O)C(F)(F)F)sc2c1CCCC2 [JR2b]
0.5 (≈ 1.24 µM) | O=C(Nc1cccc(Cl)c1)c1c(NC(=O)C(F)(F)F)sc2c1CCCC2 [JR3b]
0.25 (≈ 0.631 µM) | Cc1ccc(NC(=O)c2c(NC(=O)C(F)(F)F)sc3c2CCCCC3)cc1 [JR5]
1 (≈ 2.42 µM) | COc1ccc(NC(=O)c2c(NC(=O)C(F)(F)F)sc3c2CCCCC3)cc1 [JR6]

Same assay, conditions: Table S1, mupirocin synergy screening initial hits

Compound | MIC [µg/mL]
O=S(=O)(Nc1cccc2cccnc12)c1ccccc1 [compound 5175130] | 14.22
c1ccc(Nc2nc(-c3ccccn3)cs2)nc1 [compound 5625000] | 1.59
Cc1cccc(/C=C/c2ccc3cccc(O)c3n2)c1O [compound 6634438] | 10.40

Test system: HepG2 cells
Assay: MTT human cell cytotoxicity testing
Type: cell-based
Conditions: 4× MIC exposure for 24 h, MTT; listed as ST016037
Protocol: Human HepG2 hepatocytes were seeded in individual wells of a 96-well cell-culture treated microtiter plate at a concentration of 1 × 10^5 cells per well and incubated in Dulbecco’s Modified Eagle Medium (DMEM) supplemented with 10% fetal bovine serum at 37 °C with 5% carbon dioxide overnight. Cells were then treated with DMSO (negative control) or the indicated agent for 24 h. MTT Cell Proliferation Assay Kits were used to assess viability according to the manufacturer’s recommendations (American Type Culture Collection; Manassas, VA, USA).

Compound | % HepG2 Cell Survival [%]
O=C(Nc1ccc(Cl)cc1)c1c(NC(=O)C(F)(F)F)sc2c1CCCCC2 [JR1] | 81

Same assay, conditions: SAR figures; 4× MIC exposure for 24 h

Compound | MTT = % HepG2 cell survival [%]
O=C(Nc1cc(Cl)cc(Cl)c1)N1CCCCCC1 [JC5] | 65.3
CC1CN(C(=O)Nc2cc(Cl)cc(Cl)c2)CC(C)O1 (stereo not shown) [JC9] | 82.5
O=C(Nc1ccc(Cl)cc1)c1c(NC(=O)C(F)(F)F)sc2c1CCCCC2 [JR1] | 80.6
CC(=O)Nc1sc2c(c1C(=O)Nc1ccc(Cl)cc1)CCCCC2 [JR1b] | 84.9
Nc1sc2c(c1C(=O)Nc1ccc(Cl)cc1)CCCCC2 [JR1c] | 54.5
O=C(Nc1ccccc1Cl)c1c(NC(=O)C(F)(F)F)sc2c1CCCC2 [JR2b] | 59.5
O=C(Nc1cccc(Cl)c1)c1c(NC(=O)C(F)(F)F)sc2c1CCCC2 [JR3b] | 103.7
Cc1ccc(NC(=O)c2c(NC(=O)C(F)(F)F)sc3c2CCCCC3)cc1 [JR5] | 82.8
COc1ccc(NC(=O)c2c(NC(=O)C(F)(F)F)sc3c2CCCCC3)cc1 [JR6] | 53.3
